Measurements taken from the supplement of paper PMC10307832.

Columns and labels:
Test in all cases: relative viability (nuclei count vs DMSO), 5 days (fraction); higher = more cells survive
[1] = compound: CC(C)(C)c1cc(NC(=O)Nc2ccc(-c3cn4c(n3)sc3cc(OCCN5CCOCC5)ccc34)cc2)no1 [Quizartinib] + Cc1nc(NC(=O)N2CCC[C@H]2C(N)=O)sc1-c1ccnc(C(C)(C)C(F)(F)F)c1 [Alpelisib] (partner 2 µM)
In short: (§1)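 Medians of duplicate plates are given as relative viability. That measure is the nuclei count in treated wells divided by the count in vehicle wells. Counts were taken on 4× images of lung cancer cell lines in 1536-well plates, 5 days after pin-tool dosing the day after seeding with one drug alone or a fixed anchor-drug dose plus five library-drug doses (not always all listed) in √10 steps.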

[2] = compound: COCC[n+]1c2c(n(Cc3cnccn3)c1C)C(=O)c1ccccc1C2=O [YM155] + CC(C)C[C@H](NC(=O)[C@H](Cc1ccccc1)NC(=O)c1cnccn1)B(O)O [Bortezomib] (partner 0.002 µM)
In short: as §1

[3] = compound: COCC[n+]1c2c(n(Cc3cnccn3)c1C)C(=O)c1ccccc1C2=O [YM155]
In short: (§2)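 Only plates meeting two conditions passed: control CV below 25% and at least one doubling. Lung cancer cell lines, kept overnight at 37 °C in 1536-well plates, were pinned with five library-drug doses (not always all listed) √10 apart on vehicle-anchored plates and grown 5 days without medium change. A one-step fix, permeabilisation and Hoechst stain preceded 4× imaging and MetaXpress nuclear counting. Viability equals treated-well nuclei divided by vehicle-well nuclei, as the median over plates.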

[4] = compound: CC(C)(C)c1cc(NC(=O)Nc2ccc(-c3cn4c(n3)sc3cc(OCCN5CCOCC5)ccc34)cc2)no1 [Quizartinib]
In short: as §2

Row | Cell Line | relative viability ([1]; first compound 0.001 µM) | relative viability ([1]; first compound 0.003162 µM) | relative viability ([1]; first compound 0.01 µM) | relative viability ([1]; first compound 0.03162 µM) | relative viability ([1]; first compound 0.1 µM) | relative viability ([2]; first compound 0.002 µM) | relative viability ([2]; first compound 0.006325 µM) | relative viability ([2]; first compound 0.02 µM) | relative viability ([2]; first compound 0.06325 µM) | relative viability ([3]; 0.002 µM) | relative viability ([3]; 0.006325 µM) | relative viability ([3]; 0.02 µM) | relative viability ([3]; 0.06325 µM) | relative viability ([4]; 0.001 µM) | relative viability ([4]; 0.003162 µM) | relative viability ([4]; 0.01 µM) | relative viability ([4]; 0.03162 µM) | relative viability ([4]; 0.1 µM)
1 | NCI-H650 | 1.02 | 1.12 | 1.14 | 1.14 | 1.14 | 1.02 | 0.771 | 1.08 | 0.871 | 0.953 | 0.88 | 1.01 | 0.909 | 0.849 | 0.863 | 0.851 | 0.833 | 0.967
2 | NCI-H661 | 0.594 | 0.708 | 0.384 | 0.565 | 0.905 | 0.894 | 0.983 | 0.835 | 0.848 | 0.982 | 0.957 | 0.991 | 0.909 | 0.883 | 0.988 | 0.991 | 1.01 | 0.948
3 | NCI-H727 | 0.482 | – | 0.588 | 0.586 | 0.556 | 0.88 | 0.771 | 0.924 | 0.977 | 0.932 | 0.933 | 0.967 | 1.04 | 0.7 | 0.899 | 0.883 | 0.83 | 0.96
4 | NCI-H838 | 0.876 | 0.942 | 0.958 | 0.968 | 0.593 | 0.94 | 1.01 | 0.958 | 0.817 | 0.912 | 0.999 | 1.01 | 0.768 | 0.894 | 0.962 | 0.882 | 0.936 | 0.843
5 | NCI-H1299 | – | 1.01 | 1.11 | 1.06 | 0.986 | 1.02 | 1.01 | 1 | 1 | 0.984 | 0.977 | 1.01 | 1 | 0.949 | 1.01 | 1.02 | 1.03 | 1.03
6 | NCI-H1355 | 0.814 | 0.927 | 0.812 | 0.865 | 0.827 | 1.11 | 1.27 | 1.25 | 1.22 | 0.927 | 1.01 | 1.01 | 1.08 | 0.924 | 0.966 | 0.876 | 1 | 1.02
7 | NCI-H1437 | 0.911 | 0.883 | 1.13 | 0.749 | 0.711 | 0.501 | 0.501 | 0.516 | 0.519 | 0.89 | 0.96 | 0.983 | 0.826 | 0.942 | 0.963 | 0.973 | 0.822 | 0.849
8 | NCI-H1563 | 0.893 | 0.871 | 0.945 | – | 0.826 | 0.974 | 0.926 | 0.907 | 0.989 | 0.971 | 0.966 | 1.07 | 0.983 | 1 | 0.889 | 0.989 | 0.646 | 0.949
9 | NCI-H1651 | 0.749 | 0.872 | 1.04 | 0.751 | 0.904 | 0.937 | 0.946 | 0.897 | 0.961 | 0.929 | 0.992 | 0.974 | 0.998 | 0.88 | 0.885 | 1.06 | 0.924 | 0.988
